Measurements as given in publication PMC11411213 (Journal of Molecular Cell Biology, 2024).

Assays:
[1] = test system: intracellular ROS levels in Calu-3 cells; format: cell-based, human
in vitro = conditions: human
SARS-CoV-2 Delta strain = conditions: mouse, in vivo
[2] = test system: pseudotyped vesicular stomatitis virus (VSV) that contains SARS-CoV-2 Spike protein; format: cell-based

| Compound | intracellular ROS levels after 24 h treatment [1] | cytotoxic activity (in words) (Calu-3 cells) | CC50 (in vitro) [µM] | CC50 (Calu-3 cells) [µM] | further results |
| --- | --- | --- | --- | --- | --- |
| N[C@@H](CCC(=O)N[C@@H](CS)C(=O)NCC(=O)O)C(=O)O [GSH, glutathione] | reduced ROS levels | – | – | – | – |
| O=C(O)c1cc(/N=N/c2ccc(S(=O)(=O)Nc3ccccn3)cc2)ccc1O [Sulfasalazine] | – | no cytotoxicity at any of the tested concentrations | > 500 | – | – |
| COc1cc(Nc2ncc(F)c(Nc3ccc4c(n3)NC(=O)C(C)(C)O4)n2)cc(OC)c1OC [Tamatinib] | – | cytotoxic in the micromolar range | 5.74 ± 0.354 | – | – |
| COc1cc2c(Nc3ccc(Br)cc3F)ncnc2cc1OCC1CCN(C)CC1 [Vandetanib] | – | cytotoxic in the micromolar range | 3.76 ± 0.132 | – | – |
| MKI-1 | – | cytotoxic in the high nanomolar range | – | 0.892 ± 0.001 | – |
| N-acetyl cysteine [NAC] | reduced ROS levels | – | – | > 5000 | IHC analysis of the N protein in the lungs (SARS-CoV-2 Delta strain): confirmed by immunohistochemistry; levels of viral transcripts N and RdRp in lungs (qPCR) (SARS-CoV-2 Delta strain): significantly lower levels of viral transcripts than untreated mice; effect on SARS-CoV-2 entry (Spike pseudovirus luciferase) [2]: did not observe any effect |
| imidazole ketone erastin [IKE] | reduced the basal ROS level | – | – | 9.29 ± 0.324 | intracellular ROS levels after SARS-CoV-2 infection with 24 h pretreatment [1]: prevented virus-induced ROS bursts; intracellular ROS levels over time after administration [1]: biphasic trend, with an initial increase at early time points (0–6 h) followed by a substantial decrease at a later time point (24 h) |
